# In patent US20120095024A1, “TOLUIDINE SULFONAMIDES AND THEIR USE” (Elara Pharmaceuticals GmbH, priority 2008, published 2012):
# Test system: MCF7 cells
# Test: Cell proliferation assay (ATPlite), MCF-7
# Assay type: cell-based, human
# Settings: Homo sapiens, inhibition of cell proliferation, 72 h
# Protocol: MCF-7 human breast adenocarcinoma cells and HL-60 acute promyelocytic leukaemia cells were obtained from ATCC (LGC Promochem). HG-1 multiple myeloma cells were obtained from Dr. D. Hose (DKFZ Heidelberg). The CellSensor® HRE-bla HCT116 cell line (colorectal carcinoma) was obtained from Invitrogen.
# Cells were grown under humidified 95% air, 5% CO2 at 37° C. in Dulbecco's modified Eagle's medium (DMEM: MCF-7) or RPMI 1640 medium (RPMI: HL-60, HG-1) supplemented with 10% fetal bovine serum (FBS), 100 U/ml penicillin and 100 μg/ml streptomycin, 2 mM L-glutamine, and 2 ng/ml IL-6 (for the HG-1 cell line only). The HCT116 cell line was grown under the same atmospheric conditions in McCoy's 5A medium supplemented with 10% FBS and penicillin/streptomycin as above, in addition to blasticidin as a selection marker at a final concentration of 5 μg/ml.
# Cell proliferation experiments were carried out in 96-well tissue culture plates with seeding of 2000 cells/well (MCF-7) or 1000 cells/well (HL-60, HG-1) in 100 μl of the relevant medium. Cells were subsequently incubated under the conditions mentioned for 24 h prior to addition of compounds.
# For the determination of compound EC50 values, 10 μl compounds at 11× concentrations in 5.5% DMSO were added to the wells at various concentrations yielding a final constant percentage of 0.5% DMSO at the desired 1× compound concentration. As a positive control, cells were treated with 5.5% DMSO. The cells were then incubated for a further 72 h prior to the measurement.
# To determine the degree of inhibition of cell proliferation, cells were treated with ATPlite solution according to the manufacturer's instructions (PerkinElmer, ATPlite 1-step Luminescence ATP Detection Assay System) and luciferase readout measured on an Envision HTS multilabel plate reader (PerkinElmer) in luminescence mode according to established protocols. Raw data were imported into an ActivityBase database (IDBS, ID Business Solutions) and EC50 values calculated using the IDBS program ActivityBase XE. Table 2A and 2B show the IC50 values obtained in the above-outlined cell proliferation assay for exemplary compounds of the invention.
row,Compound,EC50 [µM]
1,"COc1ccc(S(=O)(=O)Nc2cc(-n3cc(C)cc3C)ccc2C)cc1 [Example 40, N-[5-(2,4-Dimethyl-pyrrol-1-yl)-2-methyl-phenyl]-4-methoxy-benzenesulfonamide]",1 to 10
2,"Cc1ccc(-c2ccc(C#N)s2)cc1NS(=O)(=O)c1ccc(C(F)(F)F)cc1 [Example 78, N-[5-(5-Cyano-thiophen-2-yl)-2-methyl-phenyl]-4-trifluoromethyl-benzenesulfonamide]",0.5 to 1
3,"COc1ccc(S(=O)(=O)Nc2cc(-c3ccc(C#N)s3)ccc2C)cc1C [Example 109, N-(5-(5-cyanothiophen-2-yl)-2-methylphenyl)-4-methoxy-3-methylbenzenesulfonamide]",< 0.5
4,"COc1cc(C)c(-c2ccc(C)c(NS(=O)(=O)c3ccc(C)cc3)c2)cn1 [Example 36, N-[5-(6-Methoxy-4-methyl-pyridin-3-yl)-2-methyl-phenyl]-4-methyl-benzenesulfonamide]",1 to 10
5,"COc1ccc(S(=O)(=O)Nc2cc(-c3cccc(C#N)c3)ccc2C)cc1 [Example 57, N-(3′-Cyano-4-methyl-biphenyl-3-yl)-4-methoxy-benzenesulfonamide]",0.5 to 1
6,"COc1ccc(S(=O)(=O)Nc2cc(-c3ccsc3)ccc2C)cc1 [Example 14, 4-Methoxy-N-(2-methyl-5-thiophen-3-yl-phenyl)-benzenesulfonamide]",< 0.5
7,"COc1ccc(S(=O)(=O)Nc2cc(-c3ccc(C#N)s3)ccc2C)cc1F [Example 92, N-[5-(5-Cyano-thiophen-2-yl)-2-methyl-phenyl]-3-fluoro-4-methoxy-benzenesulfonamide]",< 0.5
8,"COc1cc(-c2ccc(C)c(NS(=O)(=O)c3ccc([N+](=O)[O-])cc3)c2)ccc1C#N [Example 101, N-(4′-cyano-3′-methoxy-4-methylbiphenyl-3-yl)-4-nitrobenzenesulfonamide]",1 to 10
9,"Cc1ccc(-c2ccc(C#N)s2)cc1NS(=O)(=O)c1ccc(C#N)cc1 [Example 116, 4-cyano-N-(5-(5-cyanothiophen-2-yl)-2-methylphenyl)benzenesulfonamide]",0.5 to 1
10,"Cc1ccc(S(=O)(=O)Nc2cc(-c3cscc3C#N)ccc2C)cc1 [Example 69, N-[5-(4-Cyano-thiophen-3-yl)-2-methyl-phenyl]-4-methyl-benzenesulfonamide]",< 0.5
11,"COc1ccc(S(=O)(=O)Nc2cc(-c3ccsc3C#N)ccc2C)cc1 [Example 62, N-[5-(2-Cyano-thiophen-3-yl)-2-methyl-phenyl]-4-methoxy-benzenesulfonamide]",< 0.5
12,"Cc1ccc(S(=O)(=O)Nc2cc(-c3ccoc3C)ccc2C)cc1 [Example 25, 4-Methyl-N-[2-methyl-5-(2-methyl-furan-3-yl)-phenyl]-benzenesulfonamide]",< 0.5
13,"COc1ccc(S(=O)(=O)Nc2cc(-c3ccc(C#N)nc3)ccc2C)cc1 [Example 61, N-[5-(6-Cyano-pyridin-3-yl)-2-methyl-phenyl]-4-methoxy-benzenesulfonamide]",< 0.5
14,"COc1ccc(S(=O)(=O)Nc2cc(-n3cccc3C#N)ccc2C)cc1 [Example 41, N-[5-(2-Cyano-pyrrol-1-yl)-2-methyl-phenyl]-4-methoxy-benzenesulfonamide]",0.5 to 1
15,"COc1cc(S(=O)(=O)Nc2cc(-c3ccc(C#N)s3)ccc2C)ccc1F [Example 113, N-(5-(5-cyanothiophen-2-yl)-2-methylphenyl)-4-fluoro-3-methoxybenzenesulfonamide]",0.5 to 1
16,"COc1cncc(-c2ccc(C)c(NS(=O)(=O)c3ccc(C)cc3)c2)c1 [Example 35, N-[5-(5-Methoxy-pyridin-3-yl)-2-methyl-phenyl]-4-methyl-benzenesulfonamide]",1 to 10
17,"COc1ccc(S(=O)(=O)Nc2cc(-n3cccc3)ccc2C)cc1 [Example 21, 4-Methoxy-N-(2-methyl-5-pyrrol-1-yl-phenyl)-benzenesulfonamide]",< 0.5
18,"Cc1ccc(S(=O)(=O)Nc2cc(C)cc(-c3csc(C)c3)c2)cc1 [Example 94, 4-Methyl-N-[3-methyl-5-(5-methyl-thiophen-3-yl)-phenyl]-benzenesulfonamide]",< 0.5
19,"Cc1ccc(S(=O)(=O)Nc2cc(-c3cccc(C#N)n3)ccc2C)cc1 [Example 52, N-[5-(6-Cyano-pyridin-2-yl)-2-methyl-phenyl]-4-methyl-benzenesulfonamide]",0.5 to 1

row,Compound,EC50 [µM]
1,"Cc1ccc(-c2ccc(C#N)s2)cc1NS(=O)(=O)c1ccc(OC(F)(F)F)cc1 [Example 79, N-[5-(5-Cyano-thiophen-2-yl)-2-methyl-phenyl]-4-trifluoromethoxy-benzenesulfonamide]",1 to 10
2,"Cc1ccc(S(=O)(=O)Nc2cc(-c3cccc(C(F)(F)F)n3)ccc2C)cc1 [Example 39, 4-Methyl-N-[2-methyl-5-(6-trifluoromethyl-pyridin-2-yl)-phenyl]-benzenesulfonamide]",0.5 to 1
3,"COc1ccc(-c2ccc(C)c(NS(=O)(=O)c3ccc(C)cc3)c2)nc1 [Example 44, N-[5-(5-Methoxy-pyridin-2-yl)-2-methyl-phenyl]-4-methyl-benzenesulfonamide]",< 0.5
4,"Cc1ccc(-c2ccc(C#N)cc2)cc1NS(=O)(=O)c1cccc(F)c1 [Example 104, N-(4′-cyano-4-methylbiphenyl-3-yl)-3-fluorobenzenesulfonamide]",1 to 10
5,"Cc1ccc(-c2ccc(C)c(NS(=O)(=O)c3ccc(C)cc3)c2)cc1 [Example 10, N-(4,4′-Dimethyl-biphenyl-3-yl)-4-methyl-benzenesulfonamide]",1 to 10
6,"COc1ccc(S(=O)(=O)Nc2cc(-c3cc(C)sc3C)ccc2C)cc1 [Example 13, N-[5-(2,5-Dimethyl-thiophen-3-yl)-2-methyl-phenyl]-4-methoxy-benzenesulfonamide]",1 to 10
7,"COc1ccc(S(=O)(=O)Nc2cc(-n3ccc(C)n3)ccc2C)cc1 [Example 30, 4-Methoxy-N-[2-methyl-5-(3-methyl-pyrazol-1-yl)-phenyl]-benzenesulfonamide]",< 0.5
8,"Cc1ccc(S(=O)(=O)Nc2cc(-c3sccc3C#N)ccc2C)cc1 [Example 59, N-[5-(3-Cyano-thiophen-2-yl)-2-methyl-phenyl]-4-methyl-benzenesulfonamide]",0.5 to 1
9,"COc1ccc(S(=O)(=O)Nc2cc(-c3ccc(OC(F)(F)F)cc3)ccc2C)cc1 [Example 83, 4-Methoxy-N-(4-methyl-4′-trifluoromethoxy-biphenyl-3-yl)-benzenesulfonamide]",1 to 10
10,"Cc1ccc(S(=O)(=O)Nc2cc(-c3cc(C(F)(F)F)ccn3)ccc2C)cc1 [Example 38, 4-Methyl-N-[2-methyl-5-(4-trifluoromethyl-pyridin-2-yl)-phenyl]-benzenesulfonamide]",1 to 10
11,"Cc1ccc(S(=O)(=O)Nc2cc(-n3c(C)ccc3C)ccc2C)cc1 [Example 29, N-[5-(2,5-Dimethyl-pyrrol-1-yl)-2-methyl-phenyl]-4-methyl-benzenesulfonamide]",1 to 10
12,"COc1ccc(S(=O)(=O)Nc2cc(-c3cnco3)ccc2C)cc1 [Example 20, 4-Methoxy-N-(2-methyl-5-oxazol-5-yl-phenyl)-benzenesulfonamide]",< 0.5
13,"Cc1ccc(S(=O)(=O)Nc2cc(-c3ncccc3C)ccc2C)cc1 [Example 28, 4-Methyl-N-[2-methyl-5-(3-methyl-pyridin-2-yl)-phenyl]-benzenesulfonamide]",1 to 10
14,"Cc1ccc(-c2ccc(C#N)s2)cc1NS(=O)(=O)c1ccc(Cl)cc1 [Example 77, 4-Chloro-N-[5-(5-cyano-thiophen-2-yl)-2-methyl-phenyl]-benzenesulfonamide]",< 0.5
15,"Cc1ccc(S(=O)(=O)Nc2cc(-c3nnn[nH]3)ccc2C)cc1 [Example 1, 4-Methyl-N-[2-methyl-5-(1H-tetrazol-5-yl)-phenyl]-benzenesulfonamide]",1 to 10
16,"Cc1ccc(-c2ccc(C#N)cc2)cc1NS(=O)(=O)c1ccc(N(C)C)cc1 [Example 115, N-(4′-cyano-4-methylbiphenyl-3-yl)-4-(dimethylamino)benzenesulfonamide]",< 0.5
17,"Cc1ccc(-c2csc(C#N)c2)cc1NS(=O)(=O)c1ccc([N+](=O)[O-])cc1 [Example 96, N-(5-(5-cyanothiophen-3-yl)-2-methylphenyl)-4-nitrobenzenesulfonamide]",1 to 10
18,"Cc1ccc(-c2ccc(C#N)cc2)cc1NS(=O)(=O)c1ccc(N)cc1 [Example 87, 4-Amino-N-(4′-cyano-4-methyl-biphenyl-3-yl)-benzenesulfonamide]",< 0.5

# Same assay, conditions: inhibition of cell proliferation, 72 h
row,Compound,EC50 [µM]
1,"Cc1ccc(S(=O)(=O)Nc2cc(-c3occc3C#N)ccc2C)cc1 [Example 70, N-[5-(3-Cyo-furan-2-yl)-2-methyl-phenyl]-4-methyl-benzenesulfonamide]",< 0.5
2,N-[5-(5-Cyano-pyridin-3-yl)-2-methyl-phenyl]-4-methoxy-benzenesulfonamide [Example 74],< 0.5
